From ChEMBL document CHEMBL3885881, “DrugMatrix”

Species on record: Rattus norvegicus
Assay: DrugMatrix - Regimen: Daily Repeat
Format: toxicity, organism-based, Sprague-Dawley
Design: regimen Daily Repeat, gender Male, age 6-8 weeks
Conditions: in vivo, po, route oral GAVAGE, vehicle .5 % CMC; for ABSOLUTE LYMPHOCYTE / ABSOLUTE MONOCYTE / ABSOLUTE SEGMENTED NEUTROPHIL / BASOPHIL / EOSINOPHIL / ERYTHROCYTE COUNT / HEMATOCRIT / HEMOGLOBIN / LEUKOCYTE COUNT / LYMPHOCYTE / MEAN CORPUSCULAR HEMOGLOBIN / MEAN CORPUSCULAR HEMOGLOBIN CONCENTRATION / MEAN CORPUSCULAR VOLUME / MONOCYTE / NEUTROPHIL / NUCLEATED RED BLOOD CELLS / PLATELET COUNT / ABSOLUTE BASOPHIL / ABSOLUTE EOSINOPHIL: tissue Blood; for ALANINE AMINOTRANSFERASE / ALBUMIN / ALKALINE PHOSPHATASE / ASPARTATE AMINOTRANSFERASE / BLOOD UREA NITROGEN / CARBON DIOXIDE / CHLORIDE / CHOLESTEROL / CREATINE PHOSPHOKINASE / CREATININE / GLUCOSE / LACTATE DEHYDROGENASE / LIPASE / PHOSPHORUS / POTASSIUM / SODIUM / TOTAL BILIRUBIN / TOTAL PROTEIN / URIC ACID: tissue Plasma
[1] = 11 mg/kg, 120 h, dose level Low, time 5 day
[2] = 110 mg/kg, 72 h, dose level M1, time 3 day
[3] = 110 mg/kg, 120 h, dose level M1, time 5 day

With `COc1ccc2c3c1O[C@H]1C[C@@H](O)C=C[C@@]31CCN(C)C2` [GALANTAMINE] the “ABSOLUTE LYMPHOCYTE” value [1] was 13451.33 CELLS/uL, the “ABSOLUTE MONOCYTE” value [1] was 58.33 CELLS/uL and the “ABSOLUTE SEGMENTED NEUTROPHIL” value [1] was 1323.67 CELLS/uL. For the same compound, the BASOPHIL [1] was 0%, the EOSINOPHIL [1] was 0% and the “ERYTHROCYTE COUNT” value [1] was 5.81 x10E6/uL. For the same compound, the HEMATOCRIT [1] was 35.73%, the HEMOGLOBIN [1] was 14.27 G/DL and the “LEUKOCYTE COUNT” value [1] was 14.83 x10E3/uL. The LYMPHOCYTE [1] was 90.33%, the “MEAN CORPUSCULAR HEMOGLOBIN” value [1] was 24.57 pg and the “MEAN CORPUSCULAR HEMOGLOBIN CONCENTRATION” value [1] was 39.93 G/DL. For the same compound, the “MEAN CORPUSCULAR VOLUME” value [1] was 61.57 fL, the MONOCYTE [1] was 0.33% and the NEUTROPHIL [1] was 9.33%. The “NUCLEATED RED BLOOD CELLS” value [1] was 0 /100WBC, the “PLATELET COUNT” value [1] was 1163.33 x10E3/uL and the “ALANINE AMINOTRANSFERASE” value [1] was 48.67 u/L. For the same compound, the ALBUMIN [1] was 4.27 G/DL, the “ALKALINE PHOSPHATASE” value [1] was 399 u/L and the “ASPARTATE AMINOTRANSFERASE” value [1] was 74.67 u/L. For the same compound, the “BLOOD UREA NITROGEN” value [1] was 20.33 mg/dL, the “CARBON DIOXIDE” value [1] was 28.33 mmol/L and the CHLORIDE [1] was 99.67 MEQ/L. For the same compound, the CHOLESTEROL [1] was 76.67 mg/dL, the “CREATINE PHOSPHOKINASE” value [1] was 330.67 u/L and the CREATININE [1] was 0.19 mg/dL. For the same compound, the GLUCOSE [1] was 158.67 mg/dL, the “LACTATE DEHYDROGENASE” value [1] was 135 u/L and the LIPASE [1] was 10 u/L. For the same compound, the PHOSPHORUS [1] was 12.37 mg/dL, the POTASSIUM [1] was 6.09 MEQ/L and the SODIUM [1] was 144.2 MEQ/L. For the same compound, the “TOTAL BILIRUBIN” value [1] was 0.23 mg/dL, the “TOTAL PROTEIN” value [1] was 6.17 G/DL and the “URIC ACID” value [1] was 1.33 mg/dL. The “ABSOLUTE BASOPHIL” value [2] was 0 CELLS/uL, the “ABSOLUTE EOSINOPHIL” value [2] was 37.33 CELLS/uL and the “ABSOLUTE LYMPHOCYTE” value [2] was 14169 CELLS/uL. The “ABSOLUTE MONOCYTE” value [2] was 124.67 CELLS/uL, the “ABSOLUTE SEGMENTED NEUTROPHIL” value [2] was 769 CELLS/uL and the BASOPHIL [2] was 0%. For the same compound, the EOSINOPHIL [2] was 0.33%, the “ERYTHROCYTE COUNT” value [2] was 5.81 x10E6/uL and the HEMATOCRIT [2] was 36.57%. The HEMOGLOBIN [2] was 14.27 G/DL, the “LEUKOCYTE COUNT” value [2] was 15.1 x10E3/uL and the LYMPHOCYTE [2] was 94%. The “MEAN CORPUSCULAR HEMOGLOBIN” value [2] was 24.57 pg, the “MEAN CORPUSCULAR HEMOGLOBIN CONCENTRATION” value [2] was 39 G/DL and the “MEAN CORPUSCULAR VOLUME” value [2] was 62.97 fL. For the same compound, the MONOCYTE [2] was 0.67%, the NEUTROPHIL [2] was 5% and the “NUCLEATED RED BLOOD CELLS” value [2] was 0 /100WBC. For the same compound, the “PLATELET COUNT” value [2] was 1366 x10E3/uL, the “ALANINE AMINOTRANSFERASE” value [2] was 64.33 u/L and the ALBUMIN [2] was 4.03 G/DL. For the same compound, the “ALKALINE PHOSPHATASE” value [2] was 411.33 u/L, the “ASPARTATE AMINOTRANSFERASE” value [2] was 91 u/L and the “BLOOD UREA NITROGEN” value [2] was 16 mg/dL. The “CARBON DIOXIDE” value [2] was 33 mmol/L, the CHLORIDE [2] was 102.67 MEQ/L and the CHOLESTEROL [2] was 70.67 mg/dL. The “CREATINE PHOSPHOKINASE” value [2] was 247.67 u/L, the CREATININE [2] was 0.2 mg/dL and the GLUCOSE [2] was 131.33 mg/dL. The “LACTATE DEHYDROGENASE” value [2] was 252 u/L, the LIPASE [2] was 8.33 u/L and the PHOSPHORUS [2] was 11.67 mg/dL. For the same compound, the POTASSIUM [2] was 7.08 MEQ/L, the SODIUM [2] was 144.3 MEQ/L and the “TOTAL BILIRUBIN” value [2] was 0.23 mg/dL. For the same compound, the “TOTAL PROTEIN” value [2] was 5.5 G/DL, the “URIC ACID” value [2] was 1.43 mg/dL and the “ABSOLUTE BASOPHIL” value [3] was 0 CELLS/uL. For the same compound, the “ABSOLUTE EOSINOPHIL” value [3] was 67.67 CELLS/uL, the “ABSOLUTE LYMPHOCYTE” value [3] was 15229.33 CELLS/uL and the “ABSOLUTE MONOCYTE” value [3] was 0 CELLS/uL. The “ABSOLUTE SEGMENTED NEUTROPHIL” value [3] was 1603 CELLS/uL, the BASOPHIL [3] was 0% and the EOSINOPHIL [3] was 0.33%. For the same compound, the “ERYTHROCYTE COUNT” value [3] was 5.71 x10E6/uL, the HEMATOCRIT [3] was 35.4% and the HEMOGLOBIN [3] was 14.07 G/DL. For the same compound, the “LEUKOCYTE COUNT” value [3] was 16.9 x10E3/uL, the LYMPHOCYTE [3] was 90% and the “MEAN CORPUSCULAR HEMOGLOBIN” value [3] was 24.67 pg. For the same compound, the “MEAN CORPUSCULAR HEMOGLOBIN CONCENTRATION” value [3] was 39.77 G/DL, the “MEAN CORPUSCULAR VOLUME” value [3] was 62.03 fL and the MONOCYTE [3] was 0%. For the same compound, the NEUTROPHIL [3] was 9.67%, the “NUCLEATED RED BLOOD CELLS” value [3] was 0 /100WBC and the “PLATELET COUNT” value [3] was 1316.67 x10E3/uL. For the same compound, the “ALANINE AMINOTRANSFERASE” value [3] was 48 u/L, the ALBUMIN [3] was 4.1 G/DL and the “ALKALINE PHOSPHATASE” value [3] was 401.67 u/L. The “ASPARTATE AMINOTRANSFERASE” value [3] was 99 u/L, the “BLOOD UREA NITROGEN” value [3] was 14.33 mg/dL and the “CARBON DIOXIDE” value [3] was 24.67 mmol/L. The CHLORIDE [3] was 101.67 MEQ/L, the CHOLESTEROL [3] was 60.33 mg/dL and the “CREATINE PHOSPHOKINASE” value [3] was 541 u/L. For the same compound, the CREATININE [3] was 0.27 mg/dL, the GLUCOSE [3] was 132.67 mg/dL and the “LACTATE DEHYDROGENASE” value [3] was 653 u/L. The LIPASE [3] was 11 u/L, the PHOSPHORUS [3] was 13 mg/dL and the POTASSIUM [3] was 6.92 MEQ/L. For the same compound, the SODIUM [3] was 143.03 MEQ/L, the “TOTAL BILIRUBIN” value [3] was 0.23 mg/dL and the “TOTAL PROTEIN” value [3] was 5.77 G/DL. For the same compound, the “URIC ACID” value [3] was 1.8 mg/dL.
